Data as given in DBAASP.
≈ marks a conversion by molar mass, not a printed value. Where “and” joins values, the source holds several entries; their conditions need not be identical. Equal values may be shown once.

Key:
Experiment in all cases: ≥ marks a high value that may be exact or a test limit, other limits are often not marked, values filed in µg/mL are converted to µM
Escherichia coli E423-17 = system: Escherichia coli E423-17
[1] = system: Pseudomonas aeruginosa ATCC 19660
[2] = system: Pseudomonas aeruginosa PAO1
Pseudomonas aeruginosa = system: Pseudomonas aeruginosa
[3] = system: Staphylococcus aureus USA 300 LAC
[4] = system: Candida albicans ATCC 90028
[5] = system: Enterobacter cloacae HNTCC 53001
[6] = system: Enterococcus faecalis ATCC 29212
[7] = system: Escherichia coli ATCC 25922
[8] = system: Klebsiella pneumoniae KK3 9904
[9] = system: Pseudomonas aeruginosa ATCC 27853
[10] = system: Staphylococcus aureus NCTC 8325
[11] = system: Staphylococcus aureus T7/20
[12] = system: Staphylococcus epidermidis RP62A
[13] = system: Acinetobacter baumannii ATCC 19606
[14] = system: Bordetella bronchiseptica CUN 11844-99
[15] = system: Pseudomonas aeruginosa CUN 4158-02
[16] = system: Staphylococcus aureus ATCC 25923
[17] = system: Staphylococcus aureus ATCC 43300
[18] = system: Staphylococcus aureus CUN 3792-99
[19] = system: Stenotrophomonas maltophilia CUN 3998-00

CC[C@H](C)[C@H](NC(=O)[C@H](CCCNC(=N)N)NC(=O)[C@H](CCC(N)=O)NC(=O)[C@@H](NC(=O)[C@@H](NC(=O)[C@H](CCCNC(=N)N)NC(=O)[C@H](CCCCN)NC(=O)[C@@H](N)Cc1ccccc1)[C@@H](C)CC)C(C)C)C(=O)N[C@@H](CCCCN)C(=O)N[C@@H](CC(=O)O)C(=O)N[C@@H](Cc1ccccc1)C(=O)N[C@@H](CC(C)C)C(=O)N[C@@H](CCCNC(=N)N)C(=O)N[C@@H](CC(N)=O)C(=O)N[C@@H](CC(C)C)C(=O)N[C@H](C=O)C(C)C [FKRIVQRIKDFLRNLV]
MIC (Escherichia coli E423-17): 5.66 µM and 4 µM
MIC [1]: ≥ 97.7 µM
MIC [2]: 48.9 µM and 97.7 µM
MIC (Pseudomonas aeruginosa): 48.9 µM and 97.7 µM
MIC [3]: 4 µM (≈ 8.12 µg/mL)

CSCC[C@H](NC(=O)[C@@H](NC(=O)[C@@H](NC(=O)[C@H](CC(C)C)NC(=O)[C@@H]1CCCN1C(=O)[C@H](CC(C)C)NC(=O)[C@@H](N)Cc1ccccc1)C(C)C)[C@@H](C)O)C(=O)N[C@@H](CC(C)C)C(=O)N[C@@H](CC(C)C)C(=O)NCC(=O)N[C@@H](CCCCN)C(=O)N[C@@H](CC(C)C)C(=O)N[C@@H](Cc1ccccc1)C(N)=O [FLPLVTMLLGKLF]
MIC [4]: ≥ 160 µM
MIC [5]: ≥ 40 µM
MIC [6]: 40 µM (≈ 59.6 µg/mL)
MIC [7]: > 160 µM
MIC [8]: ≥ 80 µM
MIC [9]: 160 µM (≈ 239 µg/mL)
MIC [10]: 5 µM (≈ 7.45 µg/mL)
MIC [11]: 10 µM (≈ 14.9 µg/mL)
MIC [12]: 10 µM (≈ 14.9 µg/mL)

CC[C@H](C)[C@H](NC(=O)[C@H](CO)NC(=O)[C@H](CC(C)C)NC(=O)[C@@H](N)Cc1ccccc1)C(=O)N[C@H](C(=O)N[C@@H](C)C(=O)N[C@@H](CCCCN)C(=O)N[C@H](C(=O)N[C@@H](CC(C)C)C(=O)NCC(=O)N[C@@H](CO)C(=O)N[C@@H](CC(C)C)C(=O)N[C@@H](Cc1ccccc1)C(N)=O)C(C)C)[C@@H](C)CC [FLSIIAKVLGSLF]
MIC [4]: ≥ 160 µM
MIC [5]: ≥ 160 µM
MIC [6]: 20 µM (≈ 28.1 µg/mL)
MIC [7]: > 160 µM
MIC [8]: ≥ 160 µM
MIC [9]: > 160 µM
MIC [10]: 5 µM (≈ 7.03 µg/mL)
MIC [11]: 10 µM (≈ 14.1 µg/mL)
MIC [12]: 5 µM (≈ 7.03 µg/mL)

NCCCC[C@H](NC(=O)CNC(=O)[C@H](CCCCN)NC(=O)[C@H](Cc1ccccc1)NC(=O)[C@H](CCCCN)NC(=O)[C@H](Cc1c[nH]c2ccccc12)NC(=O)[C@H](CCCN=C(N)N)NC(=O)[C@H](Cc1ccccc1)NC(=O)[C@H](CCCN=C(N)N)NC(=O)[C@H](CCCN=C(N)N)NC(=O)[C@H](Cc1ccc(O)cc1)NC(=O)[C@H](CCCCN)NC(=O)[C@H](CCCCN)NC(=O)[C@H](CS)NC(=O)CN)C(=O)N[C@@H](Cc1ccccc1)C(=O)N[C@@H](Cc1c[nH]c2ccccc12)C(=O)N[C@@H](Cc1ccccc1)C(=O)N[C@@H](Cc1c[nH]c2ccccc12)C(N)=O [GCKKYRRFRWKFKGKFWFW]
MIC [13]: 24.1 µM (≈ 64 µg/mL)
MIC [14]: 24.1 µM (≈ 64 µg/mL)
MIC [7]: 24.1 µM (≈ 64 µg/mL)
MIC [9]: 24.1 µM (≈ 64 µg/mL)
MIC [15]: ≥ 48.2 µM
MIC [16]: 24.1 µM (≈ 64 µg/mL)
MIC [17]: 12.1 µM (≈ 32 µg/mL)
MIC [18]: 24.1 µM (≈ 64 µg/mL)
MIC [19]: ≥ 48.2 µM
